Measurements published in ChEMBL document CHEMBL3045427, “Synthesis, anticonvulsant and neurotoxic activity of some new 2,5-disubstituted-1,3,4-oxadiazoles” (Med Chem Res, 2011).
Activity calls are given as the source filed them. No cut-off for these calls is given here.

system: Mus musculus; experiment: Neurotoxicity in ip dosed Mus musculus albino (mouse) assessed as minimal motor impairment after 0.5 hr by rotarod test; assay type: toxicity, organism-based; conditions: in vivo

SMILES	MTC [mg/kg]
CC(C)=CCC/C(C)=C\C=N/c1nnc(-c2ccccc2)o1	300
NC(=O)N1c2ccccc2C=Cc2ccccc21 [CARBAMAZEPINE]	100
O=C1NC(=O)C(c2ccccc2)(c2ccccc2)N1 [PHENYTOIN]	100

system: Mus musculus; experiment: Neurotoxicity in ip dosed Mus musculus albino (mouse) assessed as minimal motor impairment after 4 hr by rotarod test; assay type: toxicity, organism-based; conditions: in vivo

SMILES	MTC [mg/kg]
CC(C)=CCC/C(C)=C\C=N/c1nnc(-c2ccccc2)o1	300
NC(=O)N1c2ccccc2C=Cc2ccccc21 [CARBAMAZEPINE]	300
O=C1NC(=O)C(c2ccccc2)(c2ccccc2)N1 [PHENYTOIN]	100

system: Mus musculus; experiment: Anticonvulsant activity in Mus musculus albino (mouse) assessed as protection against maximal electroshock-induced seizure at 300 mg/kg, ip after 0.5 hr; assay type: functional, organism-based; design: dose 300 mg/kg; conditions: not given

SMILES	Activity
CC(C)=CCC/C(C)=C\C=N/c1nnc(-c2ccc(C)cc2)o1	inactive
COc1ccc(-c2nnc(NC(=O)N/N=C\C=C(\C)CCC=C(C)C)o2)cc1	inactive
COc1ccc(-c2nnc(/N=C\C=C(\C)CCC=C(C)C)o2)cc1	inactive
CC(C)=CCC/C(C)=C\C=N/c1nnc(-c2ccc(Cl)cc2)o1	inactive
CC(C)=CCC/C(C)=C\C=N/NC(=O)Nc1nnc(-c2ccc(C)cc2)o1	inactive
CC(C)=CCC/C(C)=C\C=N/NC(=O)Nc1nnc(-c2ccccc2)o1	inactive

system: Mus musculus; experiment: Anticonvulsant activity in ip dosed Mus musculus albino (mouse) assessed as protection against subcutaneous metrazole-induced seizure after 0.5 hr; assay type: functional; conditions: read-out: MED

SMILES	minimal effective dose [mg/kg]
CC(C)=CCC/C(C)=C\C=N/c1nnc(-c2ccccc2)o1	300
NC(=O)N1c2ccccc2C=Cc2ccccc21 [CARBAMAZEPINE]	100

system: Mus musculus; experiment: Anticonvulsant activity in Mus musculus albino (mouse) assessed as protection against subcutaneous metrazole-induced seizure at 300 mg/kg, ip after 4 hr; assay type: functional, organism-based; design: dose 300 mg/kg; conditions: not given

SMILES	Activity
CC(C)=CCC/C(C)=C\C=N/c1nnc(-c2ccc(C)cc2)o1	inactive
COc1ccc(-c2nnc(NC(=O)N/N=C\C=C(\C)CCC=C(C)C)o2)cc1	inactive
COc1ccc(-c2nnc(/N=C\C=C(\C)CCC=C(C)C)o2)cc1	inactive
CC(C)=CCC/C(C)=C\C=N/NC(=O)Nc1nnc(-c2ccc(C)cc2)o1	inactive
CC(C)=CCC/C(C)=C\C=N/NC(=O)Nc1nnc(-c2ccccc2)o1	inactive
O=C1NC(=O)C(c2ccccc2)(c2ccccc2)N1 [PHENYTOIN]	inactive
CC(C)=CCC/C(C)=C\C=N/NC(=O)Nc1nnc(-c2ccc(Cl)cc2)o1	inactive

system: Mus musculus; experiment: Anticonvulsant activity in ip dosed Mus musculus albino (mouse) assessed as protection against maximal electroshock-induced seizure after 4 hr; assay type: functional; conditions: read-out: MED

SMILES	minimal effective dose [mg/kg]
CC(C)=CCC/C(C)=C\C=N/c1nnc(-c2ccccc2)o1	100
COc1ccc(-c2nnc(NC(=O)N/N=C\C=C(\C)CCC=C(C)C)o2)cc1	300
NC(=O)N1c2ccccc2C=Cc2ccccc21 [CARBAMAZEPINE]	100
CC(C)=CCC/C(C)=C\C=N/c1nnc(-c2ccc(Cl)cc2)o1	300
CC(C)=CCC/C(C)=C\C=N/NC(=O)Nc1nnc(-c2ccc(C)cc2)o1	300
CC(C)=CCC/C(C)=C\C=N/NC(=O)Nc1nnc(-c2ccccc2)o1	300
O=C1NC(=O)C(c2ccccc2)(c2ccccc2)N1 [PHENYTOIN]	30

system: Mus musculus; experiment: Anticonvulsant activity in ip dosed Mus musculus albino (mouse) assessed as protection against subcutaneous metrazole-induced seizure after 4 hr; assay type: functional; conditions: read-out: MED

SMILES	minimal effective dose [mg/kg]
CC(C)=CCC/C(C)=C\C=N/c1nnc(-c2ccccc2)o1	300
NC(=O)N1c2ccccc2C=Cc2ccccc21 [CARBAMAZEPINE]	300
CC(C)=CCC/C(C)=C\C=N/c1nnc(-c2ccc(Cl)cc2)o1	300

system: Mus musculus; experiment: Anticonvulsant activity in ip dosed Mus musculus albino (mouse) assessed as protection against maximal electroshock-induced seizure after 0.5 hr; assay type: functional; conditions: read-out: MED

SMILES	minimal effective dose [mg/kg]
CC(C)=CCC/C(C)=C\C=N/c1nnc(-c2ccccc2)o1	30
NC(=O)N1c2ccccc2C=Cc2ccccc21 [CARBAMAZEPINE]	30
O=C1NC(=O)C(c2ccccc2)(c2ccccc2)N1 [PHENYTOIN]	30
CC(C)=CCC/C(C)=C\C=N/NC(=O)Nc1nnc(-c2ccc(Cl)cc2)o1	30

system: Mus musculus; experiment: Anticonvulsant activity in Mus musculus albino (mouse) assessed as protection against maximal electroshock-induced seizure at 300 mg/kg, ip after 4 hr; assay type: functional, organism-based; design: dose 300 mg/kg; conditions: not given

SMILES	Activity
CC(C)=CCC/C(C)=C\C=N/c1nnc(-c2ccc(C)cc2)o1	inactive
COc1ccc(-c2nnc(/N=C\C=C(\C)CCC=C(C)C)o2)cc1	inactive
CC(C)=CCC/C(C)=C\C=N/NC(=O)Nc1nnc(-c2ccc(Cl)cc2)o1	inactive

system: Mus musculus; experiment: Neurotoxicity in Mus musculus albino (mouse) assessed as minimal motor impairment at 300 mg/kg, ip after 0.5 hr by rotarod test; assay type: toxicity, organism-based; design: dose 300 mg/kg, route intraperitoneal; conditions: in vivo

SMILES	Activity
CC(C)=CCC/C(C)=C\C=N/c1nnc(-c2ccc(C)cc2)o1	Non-toxic
COc1ccc(-c2nnc(NC(=O)N/N=C\C=C(\C)CCC=C(C)C)o2)cc1	Non-toxic
COc1ccc(-c2nnc(/N=C\C=C(\C)CCC=C(C)C)o2)cc1	Non-toxic
CC(C)=CCC/C(C)=C\C=N/c1nnc(-c2ccc(Cl)cc2)o1	Non-toxic
CC(C)=CCC/C(C)=C\C=N/NC(=O)Nc1nnc(-c2ccc(C)cc2)o1	Non-toxic
CC(C)=CCC/C(C)=C\C=N/NC(=O)Nc1nnc(-c2ccccc2)o1	Non-toxic
CC(C)=CCC/C(C)=C\C=N/NC(=O)Nc1nnc(-c2ccc(Cl)cc2)o1	Non-toxic

system: Mus musculus; experiment: Anticonvulsant activity in Mus musculus albino (mouse) assessed as protection against subcutaneous metrazole-induced seizure at 300 mg/kg, ip after 0.5 hr; assay type: functional, organism-based; design: dose 300 mg/kg; conditions: not given

SMILES	Activity
CC(C)=CCC/C(C)=C\C=N/c1nnc(-c2ccc(C)cc2)o1	inactive
COc1ccc(-c2nnc(NC(=O)N/N=C\C=C(\C)CCC=C(C)C)o2)cc1	inactive
COc1ccc(-c2nnc(/N=C\C=C(\C)CCC=C(C)C)o2)cc1	inactive
CC(C)=CCC/C(C)=C\C=N/c1nnc(-c2ccc(Cl)cc2)o1	inactive
CC(C)=CCC/C(C)=C\C=N/NC(=O)Nc1nnc(-c2ccc(C)cc2)o1	inactive
CC(C)=CCC/C(C)=C\C=N/NC(=O)Nc1nnc(-c2ccccc2)o1	inactive
O=C1NC(=O)C(c2ccccc2)(c2ccccc2)N1 [PHENYTOIN]	inactive
CC(C)=CCC/C(C)=C\C=N/NC(=O)Nc1nnc(-c2ccc(Cl)cc2)o1	inactive

system: Mus musculus; experiment: Neurotoxicity in Mus musculus albino (mouse) assessed as minimal motor impairment at 300 mg/kg, ip after 4 hr by rotarod test; assay type: toxicity, organism-based; design: dose 300 mg/kg, route intraperitoneal; conditions: in vivo

SMILES	Activity
CC(C)=CCC/C(C)=C\C=N/c1nnc(-c2ccc(C)cc2)o1	Non-toxic
COc1ccc(-c2nnc(NC(=O)N/N=C\C=C(\C)CCC=C(C)C)o2)cc1	Non-toxic
COc1ccc(-c2nnc(/N=C\C=C(\C)CCC=C(C)C)o2)cc1	Non-toxic
CC(C)=CCC/C(C)=C\C=N/c1nnc(-c2ccc(Cl)cc2)o1	Non-toxic
CC(C)=CCC/C(C)=C\C=N/NC(=O)Nc1nnc(-c2ccc(C)cc2)o1	Non-toxic
CC(C)=CCC/C(C)=C\C=N/NC(=O)Nc1nnc(-c2ccccc2)o1	Non-toxic
CC(C)=CCC/C(C)=C\C=N/NC(=O)Nc1nnc(-c2ccc(Cl)cc2)o1	Non-toxic
